Compared with `Nc1cc(C(=O)O)cc(OCc2ccccc2)c1-c1ccccc1`, `O=C(c1ccccc1)c1cnc2c(-c3cc(-c4ccccc4)cs3)cnn2c1O` is higher in melting point: 161 to 162 °C for the first, 277 to 290 °C for the second.

First: COC(=O)Cc1ccc2c(c1)CCN2C(C)=O
Second: CC(C)(C)OC(=O)N1CCC(=O)N1c1ccccc1
The melting point of the first is lower: 104 to 105 °C for the first, 150 °C for the second.

First: Cc1ccc(NC(=O)c2ccc(C(=O)Nc3ccccc3NC(=O)OC(C)(C)C)nc2)cc1Nc1nc(-c2cccnc2)cs1
Second: CON(C)C(=O)c1cccc(-c2nc3sccn3c2-c2ccnc(N[C@@H]3CCCN(S(=O)(=O)c4ccc(Cl)cc4)C3)n2)c1
The melting point of the first is higher: 222 to 224 °C for the first, 114 to 115 °C for the second.

First: CC(C)(C)OC(=O)[C@@H](CCc1ccc([N+](=O)[O-])cc1)OS(=O)(=O)c1ccc([N+](=O)[O-])cc1
Second: CN=C(Cl)c1ccc([N+](=O)[O-])cc1
The melting point of the first is higher: 97 to 98 °C for the first, 67 to 73 °C for the second.

First: CCn1cnc2c(Cl)nc(Cl)nc21
Second: Nc1nc(N2CCC2)c2ncn(C3CC(O)C(CO)C3)c2n1 (single isomer, unassigned; (+))
The melting point of the first is lower: 100 to 103 °C for the first, 194 to 195 °C for the second.

First: Nc1cccc(OCCCN2C(=O)c3ccccc3C2=O)c1
Second: CN(CCC=C1c2ccccc2C=Cc2ccccc21)CCC(=O)O
The melting point of the first is higher: 157 to 162 °C for the first, 119 to 120 °C for the second.

Compared with `CNC(=O)C(C)Oc1ncn(-c2cccc(Cl)c2)n1` (stereo not given), `COC(=O)c1nc2cc(Cl)c3cccnc3c2o1` is higher in melting point: 120 to 122 °C for the first, 214 to 215 °C for the second.

Compared with `Fc1ccc2c(C3CCN(CC4=Cc5ccccc54)CC3)noc2c1`, `c1ccc(C2Nc3ccccc3N3CCc4cccc2c43)cc1` (stereo not given) is higher in melting point: 78 to 82 °C for the first, 161 to 164 °C for the second.

Compared with `CCOc1ccc2[nH]c(=O)n(C34CC5CC(CC(C5)C3)C4)c2c1`, `Fc1cccc(C2OC3(CCNCC3)N3CCCCC23)c1` (stereo not given) is lower in melting point: 146 °C for the first, 133 to 135 °C for the second.

First: CCOC(=O)c1ccccc1N(CC(=O)N(C)c1ccccc1)C(=O)CNC(=O)Nc1cccc(CO)c1
Second: CSc1c(C(Cc2ccccc2)C(=O)O)cc(C)c2c1[nH]c1ccccc12 (stereo not given)
The melting point of the first is lower: 184 °C for the first, 186 to 187 °C for the second.

Compared with `C=CCn1c(=O)n(S(=O)(=O)c2ccc(Cl)cc2)c(=O)c2ccc(Cl)cc21`, `CCOC(=O)C=C1CN=C(c2ccccc2Cl)c2cc(Cl)ccc2N1` is lower in melting point: 161 to 163 °C for the first, 103 to 105 °C for the second.

Compared with `Cc1cc(Br)c(N)cc1Cl`, `O=C1CCc2cc(Cl)c([N+](=O)[O-])cc21` is higher in melting point: 90 °C for the first, 110 to 113 °C for the second.

Compared with `CCCSc1c[nH]nc1C1=CCCN(C)C1`, `CN(C)CCNC(=O)N1CCN(c2ccc(Cl)cc2)CC1` is higher in melting point: 111 °C for the first, 125 to 128 °C for the second.

First: CCCC(=NOCC)C1=C(O)CC(c2ccc(S(C)=O)cc2)CC1=O (stereo not given)
Second: CC(=O)N[C@H]1CC[C@H](c2ccc([N+](=O)[O-])cc2)CC1
The melting point of the first is lower: 72 to 74 °C for the first, 221 to 224 °C for the second.

First: CCCN(CC(=O)Nc1c(SC)nc(C)nc1N(CC)CC)c1ccccc1
Second: Cc1c(C)n(CCCF)c2c(OCc3ccccc3)nncc12
The melting point of the first is higher: 173 to 175 °C for the first, 100 to 101 °C for the second.

Compared with `Cc1ccc(C)c2c1CCC2=NNC(N)=NC(c1ccccc1)c1ccccc1`, `Cc1oc(-c2ccco2)nc1COc1ccc(COc2nn(Cc3ccccc3)cc2C(=O)O)cc1OCc1ccccc1` is lower in melting point: 271 to 273 °C for the first, 184 to 185 °C for the second.

First: O=C1CCOc2cc(S)ccc21
Second: N#CC1=CCOc2ccc(F)cc21
The melting point of the first is higher: 144 to 145 °C for the first, 114 to 115 °C for the second.

Compared with `N#Cc1cnn(-c2ccc(Cl)c(Cl)c2Cl)c1N`, `COc1ccc(-c2cc(N)c(Cl)c(C(=O)O)n2)cc1` is higher in melting point: 154 to 156 °C for the first, 192 °C for the second.

First: ON=Cc1ccc(-c2ccc(O)cc2)c2occc12
Second: CN1CCN(c2cccc3c2C[C@H](NC(=O)c2ccc(-c4ccc(O)cc4)cc2)CC3)CC1
The melting point of the first is lower: 216 to 217 °C for the first, 261 to 262 °C for the second.

First: COc1cc2c(Nc3ccc(Cl)cc3F)ncnc2cc1OCCCn1ccccc1=O
Second: CCOC(=O)Nc1ccc(N2N=C(C)C(=CNc3ccccc3OC)C2=O)cc1
The melting point of the first is higher: 216 to 218 °C for the first, 212 °C for the second.

First: CC(=O)OC1CCC(NC(=O)Nc2ccccc2CCc2cc(C(C)(C)C)c(O)c(C(C)(C)C)c2)CC1 (stereo not given)
Second: CCOc1ccc(-c2c(C(=O)OC)c(C(=O)OC)c(O)c3cc(OC)c(OC)c(OC)c23)cc1OC
The melting point of the first is lower: 92 to 94 °C for the first, 159 °C for the second.

First: CCOC(=O)C[C@H]1CC[C@H](CNC(C)=O)CC1
Second: Cc1ccc(N2C(=O)C3=C(CCCC3)C2=O)c2c1OC(CO)C2 (stereo not given)
The melting point of the first is lower: 74 to 76 °C for the first, 177 to 179 °C for the second.

Compared with `O=C1NS(=O)(=O)c2cccc(O)c21`, `O=C(O)CCC(=O)c1ccc(-c2cccc(F)c2)cc1` is lower in melting point: 228 °C for the first, 153 to 155 °C for the second.

First: CC1=CC(=O)C(C)(N=Nc2ccc3ccccc3c2)O1 (stereo not given)
Second: CCCCCCCCCCCC(=O)OCc1ccccc1-c1nc(-c2cccc(OC)c2)n[nH]1
The melting point of the first is higher: 76 to 77 °C for the first, 45 °C for the second.

First: Nc1cc([N+](=O)[O-])ccc1OCC(O)CN1C(=O)CCC1=O (stereo not given)
Second: c1csc(-c2nc3ccc(N4CCNCC4)nn3c2-c2ccncc2)c1
The melting point of the first is lower: 200 °C for the first, 217 to 220 °C for the second.
